Test results from ChEMBL document CHEMBL5046268, “Synthesis, Biological Evaluation, and Molecular Modeling Studies of 3,4-Diarylpyrazoline Series of Compounds as Potent, Nonbrain Penetrant Antagonists of Cannabinoid-1 (CB1R) Receptor with Reduced Lipophilicity” (J Med Chem, 2022).
pIC50, pKi: −log10 of the molar value. The source made the active and inactive calls. No cut-off for these calls is given here.

What was measured:
Cannabinoid receptor 1 [1] = target: T1, Cannabinoid receptor 1 (Homo sapiens, UniProt P21554); assay: Displacement of [3H]- CP55940 from human CB1R expressed in CHO-K1 cells membrane by Cheng-Prusoff equation analysis; type: cell membranes, Cell membrane; details: for pKi: read-out: Ki
T1 sequence (P21554 whole entry): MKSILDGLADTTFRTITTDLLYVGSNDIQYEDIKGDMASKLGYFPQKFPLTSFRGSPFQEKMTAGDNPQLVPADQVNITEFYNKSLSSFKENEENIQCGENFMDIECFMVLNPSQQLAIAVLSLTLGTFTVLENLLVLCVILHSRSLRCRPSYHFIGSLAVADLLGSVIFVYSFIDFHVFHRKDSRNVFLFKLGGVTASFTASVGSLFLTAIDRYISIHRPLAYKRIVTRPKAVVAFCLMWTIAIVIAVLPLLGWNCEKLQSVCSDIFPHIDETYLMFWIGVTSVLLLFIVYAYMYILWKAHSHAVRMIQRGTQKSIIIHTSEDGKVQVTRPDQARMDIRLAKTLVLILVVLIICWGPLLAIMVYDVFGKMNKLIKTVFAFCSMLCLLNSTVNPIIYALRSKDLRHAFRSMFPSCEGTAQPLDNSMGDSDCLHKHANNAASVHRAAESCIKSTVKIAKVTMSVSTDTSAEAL

Cannabinoid receptor 2 = Cannabinoid receptor 2 (Homo sapiens, UniProt P34972); assay: Displacement of [3H]- CP55940 from human CB2R expressed in CHO-K1 cells membrane by Cheng-Prusoff equation analysis; type: cell membranes, Cell membrane; details: for pKi: read-out: Ki
Chain of Cannabinoid receptor 2 (P34972 whole entry): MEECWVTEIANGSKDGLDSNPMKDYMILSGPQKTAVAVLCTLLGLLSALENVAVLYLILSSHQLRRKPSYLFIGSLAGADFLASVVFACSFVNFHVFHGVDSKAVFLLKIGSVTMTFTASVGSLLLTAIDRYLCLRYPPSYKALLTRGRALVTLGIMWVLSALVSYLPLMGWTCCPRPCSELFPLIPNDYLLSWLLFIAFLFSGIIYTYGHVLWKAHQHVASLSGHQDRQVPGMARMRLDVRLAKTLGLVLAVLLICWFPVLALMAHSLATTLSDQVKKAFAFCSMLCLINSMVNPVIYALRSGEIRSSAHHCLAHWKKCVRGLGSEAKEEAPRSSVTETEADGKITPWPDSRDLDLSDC

Cannabinoid receptor 1 [2] = target: T1, Cannabinoid receptor 1; assay: Antagonist activity at human CB1R expressed in CHO-K1 cell membranes assessed as stimulation of [35S]-GTPgammaS binding by liquid scintillation counting method; type: functional, Cell membrane; details: for pIC50: read-out: IC50; for IC50: cho-k1
[3] = Drug distribution in C57BL/6J mouse plasma at 10 mg/kg, ip incubated for 1 hrs by LC/MS/MS analysis; type: ADME, organism-based; details: in vivo
[4] = Drug distribution in C57BL/6J mouse liver at 10 mg/kg, ip incubated for 1 hrs by LC/MS/MS analysis; type: ADME, organism-based; details: in vivo
[5] = Ratio of drug level in C57BL/6J mouse brain to plasma at 10 mg/kg, ip incubated for 1 hrs by LC/MS/MS analysis; type: ADME, organism-based; details: read-out: BPR
Cannabinoid receptor 1 [6] = target: T1, Cannabinoid receptor 1; assay: Inverse agonist activity at human CB1R expressed in CHO-K1 cell membrane assessed as […] in [35S]GTPgammaS binding; type: functional, cell membranes
[7] = Drug distribution in C57BL/6J mouse brain at 10 mg/kg, ip incubated for 1 hrs by LC/MS/MS analysis; type: ADME, organism-based; details: in vivo
[8] = target: Nitric oxide synthase, inducible (Homo sapiens) (UniProt P35228); assay: Inhibition of recombinant iNOS (unknown origin) assessed as reduction in L-[3H]-citrulline level using L-[3H]-arginine as substrate at 10 uM by Enzymatic NOS activity assay
Chain of Nitric oxide synthase, inducible (Homo sapiens) (P35228 whole entry): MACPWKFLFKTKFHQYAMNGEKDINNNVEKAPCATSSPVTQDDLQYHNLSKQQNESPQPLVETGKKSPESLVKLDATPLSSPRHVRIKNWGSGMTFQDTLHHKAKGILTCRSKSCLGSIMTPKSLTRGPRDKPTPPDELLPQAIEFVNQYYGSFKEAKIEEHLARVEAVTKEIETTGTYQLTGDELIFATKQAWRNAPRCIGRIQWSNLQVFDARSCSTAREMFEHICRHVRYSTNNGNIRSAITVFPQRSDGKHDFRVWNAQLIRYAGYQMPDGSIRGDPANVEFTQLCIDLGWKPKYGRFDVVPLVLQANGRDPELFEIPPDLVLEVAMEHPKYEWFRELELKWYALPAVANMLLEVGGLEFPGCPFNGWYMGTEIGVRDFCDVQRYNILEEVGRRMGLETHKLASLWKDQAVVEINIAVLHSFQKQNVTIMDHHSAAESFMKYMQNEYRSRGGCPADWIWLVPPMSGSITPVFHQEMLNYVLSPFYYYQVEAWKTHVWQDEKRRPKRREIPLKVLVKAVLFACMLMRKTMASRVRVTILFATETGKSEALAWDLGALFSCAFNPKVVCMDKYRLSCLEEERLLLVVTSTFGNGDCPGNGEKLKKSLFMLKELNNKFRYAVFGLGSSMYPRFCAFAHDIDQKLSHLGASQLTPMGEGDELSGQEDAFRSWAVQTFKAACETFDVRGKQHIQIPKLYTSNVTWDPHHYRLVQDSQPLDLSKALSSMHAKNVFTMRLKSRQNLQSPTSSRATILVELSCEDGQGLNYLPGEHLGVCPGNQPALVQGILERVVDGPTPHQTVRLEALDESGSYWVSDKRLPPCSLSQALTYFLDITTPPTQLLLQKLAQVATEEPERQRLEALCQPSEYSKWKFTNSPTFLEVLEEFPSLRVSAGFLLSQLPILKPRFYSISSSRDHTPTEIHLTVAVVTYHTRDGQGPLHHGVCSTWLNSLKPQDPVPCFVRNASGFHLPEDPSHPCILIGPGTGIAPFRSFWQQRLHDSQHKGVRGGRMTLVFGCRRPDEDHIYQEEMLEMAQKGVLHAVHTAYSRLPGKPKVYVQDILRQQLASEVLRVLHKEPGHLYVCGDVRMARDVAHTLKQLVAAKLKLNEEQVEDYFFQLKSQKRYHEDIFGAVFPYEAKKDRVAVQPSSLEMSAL

[9] = Microsomal stability in human liver microsomes assessed as half life at 3 mg/kg, ip by LC-MS/MS analysis; type: ADME, Microsome
[10] = Protein binding in mouse plasma assessed as […] at 5 uM and incubated for 4 hrs by LC-MS/MS analysis; type: ADME, cell-free; details: read-out: PPB
[11] = Microsomal stability in C57BL/6J mouse liver microsomes assessed as half life at 3 mg/kg, ip by LC-MS/MS analysis; type: ADME, Microsome
[12] = Stability in C57BL/6J mouse plasma assessed as half life at 3 mg/kg, ip by LC-MS/MS analysis; type: ADME, organism-based
Mus musculus [13] = assay: Anti-obesity activity in high fat diet-induced obese C57BL/6J mouse assessed as reduction in body weight at 10 mg/kg, ip measured every daily for 1 weeks; type: functional; details: 168 h
Mus musculus [14] = assay: Anti-obesity activity in high fat diet-induced obese C57BL/6J mouse assessed as reduction in food intake at 10 mg/kg, ip measured every daily for 1 weeks; type: functional, organism-based
[15] = Protein binding in human plasma assessed as […] at 5 uM for 4 hrs by LC-MS/MS analysis; type: ADME, cell-free; details: read-out: PPB
Mus musculus [16] = assay: Anti-obesity activity in high fat diet-induced obese C57BL/6J mouse assessed as reduction in body weight at 3 mg/kg, ip dosed daily for 1 week; type: functional; details: 168 h, time 1 weeks
Mus musculus [17] = assay: Anti-obesity activity in high fat diet-induced obese C57BL/6J mouse assessed as reduction in food intake at 3 mg/kg, ip dosed daily for 1 week; type: functional, organism-based; details: time 1.0 weeks

SMILES	pKi (Cannabinoid receptor 1 [1])	pKi (Cannabinoid receptor 2)	pIC50 (Cannabinoid receptor 1 [2])	further results
CS/C(N)=N\C(=N\S(=O)(=O)N1CCCCC1)N1CC(c2ccccc2)C(c2ccc(Cl)cc2)=N1 (configuration not stated)	7.82	< 7.00	6.78	–
N/C(=N/C(=N/S(=O)(=O)N1CCCCC1)N1CC(c2ccccc2)C(c2ccc(Cl)cc2)=N1)c1ccc(F)cc1 (configuration not stated)	8.19	7.44	8.40	–
N/C(=N\C(=N\S(=O)(=O)N1CCC(F)(F)CC1)N1CC(c2ccccc2)C(c2ccc(Cl)cc2)=N1)c1ccc(Cl)cc1 (configuration not stated)	8.26	< 6.00	8.38	Drug uptake [3]: Active; Drug uptake [4]: Active; Kp at 1 h [5]: 0.14; pIC50 (Cannabinoid receptor 1 [6]): 8.60; Drug uptake [7]: Active
C/C(N)=N\C(=N\S(=O)(=O)N1CCCCC1)N1CC(c2ccccc2)C(c2ccc(Cl)cc2)=N1 (configuration not stated)	8.52	< 7.00	7.24	Drug uptake [3]: Active; Drug uptake [4]: Active; Kp at 1 h [5]: 0.04; Drug uptake [7]: Active
C/C(N)=N/C(=N/S(=O)(=O)N1CCC(C(F)(F)F)CC1)N1CC(c2ccccc2)C(c2ccc(Cl)cc2)=N1 (configuration not stated)	8.41	< 7.00	6.56	–
CC(C)(C)/C(N)=N/C(=N/S(=O)(=O)N1CCC(C(F)(F)F)CC1)N1CC(c2ccccc2)C(c2ccc(Cl)cc2)=N1 (configuration not stated)	8.96	< 7.00	8.70	Drug uptake [3]: Active; Drug uptake [4]: Active; Kp at 1 h [5]: 0.15; pIC50 (Cannabinoid receptor 1 [6]): 8.74; Drug uptake [7]: Active
N/C(=N\C(=N\S(=O)(=O)N1CCCC1)N1CC(c2ccccc2)C(c2ccc(Cl)cc2)=N1)c1ccc(F)cc1 (configuration not stated)	7.98	< 6.00	6.94	inhibition [8]: Active
N/C(=N\C(=N\S(=O)(=O)N1CCOCC1)N1CC(c2ccccc2)C(c2ccc(Cl)cc2)=N1)c1ccc(Cl)cc1 (configuration not stated)	7.72	< 6.00	7.60	–
CCN(CC)S(=O)(=O)/N=C(/N=C(/C)N)N1C[C@H](c2ccccc2)C(c2ccc(Cl)cc2)=N1	8.92	7.18	8.92	half-life [9]: > 2 min; fraction unbound at 4 h, 5 µM [10]: ≤ 0.006; half-life [11]: > 2 min; half-life [12]: < 120 min; inhibition in vivo at 10 mg/kg (Mus musculus [13]): 8%; Activity (Mus musculus [14]): Active; pIC50 (Cannabinoid receptor 1 [6]): 9.10; fraction unbound at 4 h, 5 µM [15]: ≤ 0.006
CC(C)(C)/C(N)=N/C(=N/S(=O)(=O)N1CCC(F)(F)CC1)N1CC(c2ccccc2)C(c2ccc(Cl)cc2)=N1 (configuration not stated)	7.68	< 6.00	8.00	Drug uptake [3]: Active; Drug uptake [4]: Active; Kp at 1 h [5]: 0.14; pIC50 (Cannabinoid receptor 1 [6]): 8.49; Drug uptake [7]: Active
CS/C(N)=N\C(=N\S(=O)(=O)N1CCC(F)(F)CC1)N1CC(c2ccccc2)C(c2ccc(Cl)cc2)=N1 (configuration not stated)	7.85	< 7.00	6.90	–
CS/C(N)=N/C(=N/S(=O)(=O)N1CCC(C(F)(F)F)CC1)N1C[C@H](c2ccccc2)C(c2ccc(Cl)cc2)=N1	9.15	6.48	8.70	fraction unbound at 4 h, 5 µM [10]: ≤ 0.006; half-life [12]: < 120 min; inhibition in vivo at 10 mg/kg (Mus musculus [13]): 8%; Activity (Mus musculus [14]): Active; pIC50 (Cannabinoid receptor 1 [6]): 8.80; fraction unbound at 4 h, 5 µM [15]: ≤ 0.006
C/C(N)=N/C(=N/S(=O)(=O)N1CCCC1)N1CC(c2ccccc2)C(c2ccc(Cl)cc2)=N1 (configuration not stated)	8.13	< 6.00	6.86	inhibition [8]: Active
C/C(N)=N\C(=N\S(=O)(=O)N1CCCCC1)N1C[C@H](c2ccccc2)C(c2ccc(Cl)cc2)=N1	8.80	7.37	8.40	half-life [9]: > 2 min; fraction unbound at 4 h, 5 µM [10]: ≤ 0.006; half-life [11]: > 2 min; half-life [12]: < 120 min; inhibition in vivo at 3 mg/kg (Mus musculus [16]): 8%; Activity (Mus musculus [17]): Active; pIC50 (Cannabinoid receptor 1 [6]): 8.70; fraction unbound at 4 h, 5 µM [15]: ≤ 0.006
CS/C(N)=N/C(=N/S(=O)(=O)N1CCC(C(F)(F)F)CC1)N1CC(c2ccccc2)C(c2ccc(Cl)cc2)=N1 (configuration not stated)	8.62	< 7.00	8.44	Drug uptake [3]: Active; Drug uptake [4]: Active; Kp at 1 h [5]: 0.036; Drug uptake [7]: Active
CCN(CC)S(=O)(=O)/N=C(/N=C(/C)N)N1C[C@@H](c2ccccc2)C(c2ccc(Cl)cc2)=N1	–	–	–	Ki (Cannabinoid receptor 1 [1]; cho-k1): Not Active; Ki (Cannabinoid receptor 2; cho-k1): Not Active; IC50 (Cannabinoid receptor 1 [2]): Not Active
CCN(CC)S(=O)(=O)/N=C(/N=C(\N)c1ccc(Cl)cc1)N1CC(c2ccccc2)C(c2ccc(Cl)cc2)=N1 (configuration not stated)	7.97	7.15	7.07	inhibition [8]: Active
CCN(CC)S(=O)(=O)/N=C(/N=C(\N)C(C)(C)C)N1CC(c2ccccc2)C(c2ccc(Cl)cc2)=N1 (configuration not stated)	8.00	< 6.00	6.43	inhibition [8]: Active
CS/C(N)=N/C(=N/S(=O)(=O)N1CCCC1)N1CC(c2ccccc2)C(c2ccc(Cl)cc2)=N1 (configuration not stated)	7.64	< 6.00	6.34	inhibition [8]: Active
C/C(N)=N\C(=N\S(=O)(=O)N1CCC(F)(F)CC1)N1CC(c2ccccc2)C(c2ccc(Cl)cc2)=N1 (configuration not stated)	8.47	< 7.00	7.82	–
C/C(N)=N\C(=N\S(=O)(=O)N1CCCCC1)N1C[C@@H](c2ccccc2)C(c2ccc(Cl)cc2)=N1	6.21	< 6.00	–	IC50 (Cannabinoid receptor 1 [2]): Not Active
CCN(CC)S(=O)(=O)/N=C(/N=C(/C)N)N1CC(c2ccccc2)C(c2ccc(Cl)cc2)=N1 (configuration not stated)	8.23	< 7.00	8.72	Drug uptake [3]: Active; Drug uptake [4]: Active; inhibition [8]: Active; Kp at 1 h [5]: 0.025; Drug uptake [7]: Active

Further lines, with some results ahead:

pKi (Cannabinoid receptor 1 [1])	pKi (Cannabinoid receptor 2)	pIC50 (Cannabinoid receptor 1 [2])	SMILES	further results
8.11	7.77	8.22	N/C(=N/C(=N/S(=O)(=O)N1CCCCC1)N1CC(c2ccccc2)C(c2ccc(Cl)cc2)=N1)c1ccc(Cl)cc1 (configuration not stated)	–
7.40	< 6.00	7.72	N/C(=N\C(=N\S(=O)(=O)N1CCOCC1)N1CC(c2ccccc2)C(c2ccc(Cl)cc2)=N1)c1ccc(F)cc1 (configuration not stated)	–
8.26	< 6.00	6.97	CCN(CC)S(=O)(=O)/N=C(/N=C(\N)c1ccc(F)cc1)N1CC(c2ccccc2)C(c2ccc(Cl)cc2)=N1 (configuration not stated)	inhibition [8]: Active
7.51	< 6.00	7.20	C/C(N)=N/C(=N/S(=O)(=O)N1CCOCC1)N1CC(c2ccccc2)C(c2ccc(Cl)cc2)=N1 (configuration not stated)	–
< 6.00	< 6.00	–	CS/C(N)=N/C(=N/S(=O)(=O)N1CCC(C(F)(F)F)CC1)N1C[C@@H](c2ccccc2)C(c2ccc(Cl)cc2)=N1	IC50 (Cannabinoid receptor 1 [2]): Not Active
7.64	< 6.00	6.89	CC(C)(C)/C(N)=N\C(=N\S(=O)(=O)N1CCCCC1)N1CC(c2ccccc2)C(c2ccc(Cl)cc2)=N1 (configuration not stated)	–
7.39	< 6.00	7.04	CS/C(N)=N/C(=N/S(=O)(=O)N1CCOCC1)N1CC(c2ccccc2)C(c2ccc(Cl)cc2)=N1 (configuration not stated)	–
8.48	7.55	8.36	N/C(=N\C(=N\S(=O)(=O)N1CCC(F)(F)CC1)N1CC(c2ccccc2)C(c2ccc(Cl)cc2)=N1)c1ccc(F)cc1 (configuration not stated)	–
< 7.00	< 6.00	7.47	CC(C)(C)/C(N)=N/C(=N/S(=O)(=O)N1CCOCC1)N1CC(c2ccccc2)C(c2ccc(Cl)cc2)=N1 (configuration not stated)	–
7.89	7.15	6.41	CCN(CC)S(=O)(=O)/N=C(/N=C(\N)SC)N1CC(c2ccccc2)C(c2ccc(Cl)cc2)=N1 (configuration not stated)	inhibition [8]: Active
< 6.00	< 6.00	7.21	CC(C)(C)/C(N)=N/C(=N/S(=O)(=O)N1CCCC1)N1CC(c2ccccc2)C(c2ccc(Cl)cc2)=N1 (configuration not stated)	inhibition [8]: Active
7.12	< 6.00	6.37	N/C(=N\C(=N\S(=O)(=O)N1CCCC1)N1CC(c2ccccc2)C(c2ccc(Cl)cc2)=N1)c1ccc(Cl)cc1 (configuration not stated)	inhibition [8]: Active
8.26	7.70	8.27	N/C(=N\C(=N\S(=O)(=O)N1CCC(C(F)(F)F)CC1)N1CC(c2ccccc2)C(c2ccc(Cl)cc2)=N1)c1ccc(Cl)cc1 (configuration not stated)	–
7.70	7.85	8.56	N/C(=N\C(=N\S(=O)(=O)N1CCC(C(F)(F)F)CC1)N1CC(c2ccccc2)C(c2ccc(Cl)cc2)=N1)c1ccc(F)cc1 (configuration not stated)	–
